Assay results reported in ChEMBL document CHEMBL3217742, “Mapping of a lipoglycopeptide antibiotic binding site on Staphylococcus aureus penicillin-binding protein 2 using a vancomycin photoaffinity analogue” (2012).
Values after ≈ are worked out from the molar mass of the structure shown. Active and inactive are the calls of the source. The calls are words filed in the database; no cut-off is given here.

Columns and labels:
Enterococcus faecium [1] = assay: Antibacterial activity against vancomycin B-resistant Enterococcus faecium SR23598; assay type: functional
Staphylococcus aureus [2] = assay: Antibacterial activity against vancomycin A-resistant Staphylococcus aureus VRS2; assay type: functional
Enterococcus faecium [3] = assay: Antibacterial activity against vancomycin A-resistant Enterococcus faecium SR7940; assay type: functional
Staphylococcus aureus [4] = assay: Antibacterial activity against vancomycin-susceptible Staphylococcus aureus RN4220; assay type: functional
[5] = test system: Staphylococcus aureus subsp. aureus RN4220; assay: Displacement of photoaffinity probe 1 from penicillin-binding protein-2 in Staphylococcus aureus RN4220 cell membrane incubated for 5 mins prior to photoaffinity probe 1 challenge for 5 mins measured after UV irradiation by SDS-PAGE based western blot analysis
Enterococcus faecium [6] = assay: Antibacterial activity against vancomycin-susceptible Enterococcus faecium SR16972; assay type: functional
[7] = test system: Staphylococcus aureus subsp. aureus RN4220; assay: Binding affinity to penicillin-binding protein-2 in Staphylococcus aureus RN4220 cell membrane at 50 uM incubated for 20 mins measured after UV irradiation by SDS-PAGE based immunostaining
[8] = test system: Staphylococcus aureus subsp. aureus RN4220; assay: Binding affinity to penicillin-binding protein-2 transpeptidase domain in Staphylococcus aureus RN4220 cell membrane at 1 uM incubated for 1 hr measured after UV irradiation by pull-down assay
[9] = test system: Staphylococcus aureus subsp. aureus RN4220; assay: Binding affinity to Staphylococcus aureus RN4220 recombinant C-terminal His6-tagged PBP2 expressed in Escherichia coli cells at 2 uM incubated for 2 hrs measured after UV irradiation by LC-MALDI-MS/MS analysis

SMILES	MIC (Enterococcus faecium [1]) [µg/mL]	MIC (Staphylococcus aureus [2]) [µg/mL]	MIC (Enterococcus faecium [3]) [µg/mL]	MIC (Staphylococcus aureus [4]) [µg/mL]	inhibition [5]	MIC (Enterococcus faecium [6]) [µg/mL]	Activity [7]	Activity [8]	Activity [9]
CN[C@H](CC(C)C)C(=O)N[C@H]1C(=O)N[C@@H](CC(N)=O)C(=O)N[C@H]2C(=O)N[C@H]3C(=O)N[C@H](C(=O)N[C@H](C(=O)O)c4cc(O)cc(O)c4-c4cc3ccc4O)[C@H](O)c3ccc(c(Cl)c3)Oc3cc2cc(c3O[C@@H]2O[C@H](CO)[C@@H](O)[C@H](O)[C@H]2O[C@H]2C[C@](C)(N)[C@H](O)[C@H](C)O2)Oc2ccc(cc2Cl)[C@H]1O [VANCOMYCIN]	> 64	> 64	> 64	–	–	–	–	–	–
CN[C@H](CC(C)C)C(=O)N[C@H]1C(=O)N[C@@H](CC(N)=O)C(=O)N[C@H]2C(=O)N[C@H]3C(=O)N[C@H](C(=O)N[C@H](C(=O)O)c4cc(O)cc(O)c4-c4cc3ccc4O)[C@H](O)c3ccc(c(Cl)c3)Oc3cc2cc(c3O[C@@H]2O[C@H](CO)[C@@H](O)[C@H](O)[C@H]2O[C@H]2C[C@](C)(NCc3cccc(NC(=O)c4ccc(C)c(OCc5ccccc5)c4[N+](=O)[O-])c3)[C@H](O)[C@H](C)O2)Oc2ccc(cc2Cl)[C@H]1O	0.25 (≈ 0.137 µM)	0.5 (≈ 0.274 µM)	1 (≈ 0.548 µM)	0.125 (≈ 0.0685 µM)	Dose-dependent effect	0.25 (≈ 0.137 µM)	–	–	–
CN[C@H](CC(C)C)C(=O)N[C@H]1C(=O)N[C@@H](CC(N)=O)C(=O)N[C@H]2C(=O)N[C@H]3C(=O)N[C@H](C(=O)N[C@H](C(=O)NCCCOCCOCCOCCCNC(=O)CCCC[C@@H]4SC[C@@H]5NC(=O)N[C@@H]54)c4cc(O)cc(O)c4-c4cc3ccc4O)[C@H](O)c3ccc(c(Cl)c3)Oc3cc2cc(c3O[C@@H]2O[C@H](CO)[C@@H](O)[C@H](O)[C@H]2O[C@H]2C[C@](C)(NCc3ccc(NC(=O)c4ccc(C5(C(F)(F)F)N=N5)cc4)nc3)[C@H](O)[C@H](C)O2)Oc2ccc(cc2Cl)[C@H]1O	0.5 (≈ 0.228 µM)	2 (≈ 0.911 µM)	2 (≈ 0.911 µM)	1 (≈ 0.455 µM)	–	0.5 (≈ 0.228 µM)	Active	Active	Active
